Measured values as given in patent US20240239863A1, “GIP RECEPTOR AGONIST AND USE THEREOF” (HANGZHOU ZHONGMEIHUADONG PHARMACEUTICAL CO., LTD., priority 2022, published 2024).
Where two headings read alike, the source gives them in different places. Starred links: 1 amine or outer side, 2 acyl side, 3 side chain; linkers in the order of their positions; H or OH if unused. Non-standard residues stand in square brackets, D forms with d. Residues, ends and D or L forms follow the SMILES beside them. Groups on a side chain read outwards from the residue. *: point of attachment. d(γGlu) = O=C(O)[C@@H](CCC(=O)[*:2])N[*:1]; C18 diacid = O=C(O)CCCCCCCCCCCCCCCCC(=O)*; AEEA = NCCOCCOCC(=O)O; Aib = CC(C)(N)C(=O)O

Biological target: hGLP-1R (Homo sapiens, UniProt P43220)
Sequence (P43220 24-463): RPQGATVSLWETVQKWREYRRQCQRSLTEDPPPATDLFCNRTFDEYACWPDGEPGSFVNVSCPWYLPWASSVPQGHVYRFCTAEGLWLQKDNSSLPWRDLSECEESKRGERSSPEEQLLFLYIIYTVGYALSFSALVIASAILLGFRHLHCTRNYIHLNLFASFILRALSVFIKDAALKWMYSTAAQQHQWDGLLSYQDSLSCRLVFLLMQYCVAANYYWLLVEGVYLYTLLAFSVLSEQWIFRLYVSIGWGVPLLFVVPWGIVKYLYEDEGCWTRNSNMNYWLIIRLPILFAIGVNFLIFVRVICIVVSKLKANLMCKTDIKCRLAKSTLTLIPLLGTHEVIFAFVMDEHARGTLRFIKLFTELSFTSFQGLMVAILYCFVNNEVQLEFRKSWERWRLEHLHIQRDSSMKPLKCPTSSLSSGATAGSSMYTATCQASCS
Assay: Cell agonistic activity at GLP-1 receptor (Example 7)
Format: cell-based

Structure (SMILES)	EC50 [nM]	EC50 (read-out: hGLP-1R EC50) [nM]
CC[C@H](C)[C@H](NC(=O)[C@H](CO)NC(=O)[C@H](Cc1ccc(O)cc1)NC(=O)[C@H](CC(=O)O)NC(=O)[C@H](CO)NC(=O)[C@@H](NC(=O)[C@H](Cc1ccccc1)NC(=O)[C@@H](NC(=O)CNC(=O)[C@H](CCC(=O)O)NC(=O)C(C)(C)NC(=O)[C@@H](N)Cc1ccc(O)cc1)[C@@H](C)O)[C@@H](C)CC)C(=O)N[C@@H](C)C(=O)N[C@@H](CC(C)C)C(=O)N[C@@H](CC(=O)O)C(=O)N[C@@H](CCCCN)C(=O)N[C@H](C(=O)N[C@@H](Cc1c[nH]cn1)C(=O)N[C@@H](CCC(N)=O)C(=O)N[C@@H](CCC(N)=O)C(=O)N[C@@H](CC(=O)O)C(=O)N[C@@H](Cc1ccccc1)C(=O)N[C@H](C(=O)N[C@@H](CC(N)=O)C(=O)N[C@@H](Cc1c[nH]c2ccccc12)C(=O)N[C@@H](CC(C)C)C(=O)N[C@@H](CC(C)C)C(=O)N[C@@H](C)C(=O)N[C@@H](CCC(N)=O)C(=O)N[C@@H](CCCNC(=N)N)C(=O)NCC(=O)O)C(C)C)[C@@H](C)CC [Sequence 7] (H-Y[Aib]EGTFISDYSIALDKIHQQDFVNWLLAQRG-OH; N-terminus and C-terminus assumed)	> 0.1	
CC[C@H](C)[C@H](NC(=O)[C@H](CO)NC(=O)[C@H](Cc1ccc(O)cc1)NC(=O)[C@H](CC(=O)O)NC(=O)[C@H](CO)NC(=O)[C@@H](NC(=O)[C@H](Cc1ccccc1)NC(=O)[C@@H](NC(=O)CNC(=O)[C@H](CCC(=O)O)NC(=O)C(C)(C)NC(=O)[C@@H](N)Cc1ccc(O)cc1)[C@@H](C)O)[C@@H](C)CC)C(=O)N[C@@H](C)C(=O)N[C@@H](CC(C)C)C(=O)N[C@@H](CC(=O)O)C(=O)N[C@@H](CCCCNC(=O)COCCOCCNC(=O)COCCOCCNC(=O)CC[C@@H](NC(=O)CCCCCCCCCCCCCCCCC(=O)O)C(=O)O)C(=O)N[C@@H](CC(C)C)C(=O)N[C@@H](Cc1c[nH]cn1)C(=O)N[C@@H](CCC(N)=O)C(=O)N[C@@H](CCC(=O)O)C(=O)N[C@@H](CC(=O)O)C(=O)N[C@@H](Cc1ccccc1)C(=O)N[C@H](C(=O)N[C@@H](CC(N)=O)C(=O)N[C@@H](Cc1c[nH]c2ccccc12)C(=O)N[C@@H](CC(C)C)C(=O)N[C@@H](CC(C)C)C(=O)N[C@@H](C)C(=O)N[C@@H](CCC(N)=O)C(=O)N[C@@H](CCCNC(=N)N)C(=O)NCC(=O)O)C(C)C [Peptide 10, N-{ε-16}-18-{[(23R)-23-carboxyl-2,11,20-trioxo-10,19-diaza-4,7,13,16-tetraoxatricosyl-23-yl]amino}-18-oxooctadecanoic acid acetyl-[Aib2, L14, L17, E20, R30]-hGIP(1-31)] (H-Y[Aib]EGTFISDYSIALDK([AEEA-AEEA-d(γGlu)-C18 diacid])LHQEDFVNWLLAQRG-OH)		> 0.1
CC[C@H](C)[C@H](NC(=O)[C@H](CCCCN)NC(=O)[C@H](CC(=O)O)NC(=O)[C@H](CC(C)C)NC(=O)C(C)(C)NC(=O)[C@@H](NC(=O)[C@H](CO)NC(=O)[C@H](Cc1ccc(O)cc1)NC(=O)[C@H](CC(=O)O)NC(=O)[C@H](CO)NC(=O)[C@@H](NC(=O)[C@H](Cc1ccccc1)NC(=O)[C@@H](NC(=O)CNC(=O)[C@H](CCC(=O)O)NC(=O)C(C)(C)NC(=O)[C@@H](N)Cc1ccc(O)cc1)[C@@H](C)O)[C@@H](C)CC)[C@@H](C)CC)C(=O)N[C@@H](Cc1c[nH]cn1)C(=O)N[C@@H](CCC(N)=O)C(=O)N[C@@H](CCC(=O)O)C(=O)N[C@@H](CC(=O)O)C(=O)N[C@@H](Cc1ccccc1)C(=O)N[C@H](C(=O)N[C@@H](CCCCN)C(=O)N[C@@H](Cc1c[nH]c2ccccc12)C(=O)N[C@@H](CC(C)C)C(=O)N[C@@H](CC(C)C)C(=O)N[C@@H](C)C(=O)N[C@@H](CCC(N)=O)C(=O)N[C@@H](CCCCN)C(=O)NCC(=O)O)C(C)C [Sequence 1] (H-Y[Aib]EGTFISDYSI[Aib]LDKIHQEDFVKWLLAQKG-OH; N-terminus and C-terminus assumed)	> 0.1	
CC[C@H](C)[C@H](NC(=O)[C@H](CO)NC(=O)[C@H](Cc1ccc(O)cc1)NC(=O)[C@H](CC(=O)O)NC(=O)[C@H](CO)NC(=O)[C@@H](NC(=O)[C@H](Cc1ccccc1)NC(=O)[C@@H](NC(=O)CNC(=O)[C@H](CCC(=O)O)NC(=O)C(C)(C)NC(=O)[C@@H](N)Cc1ccc(O)cc1)[C@@H](C)O)[C@@H](C)CC)C(=O)N[C@@H](C)C(=O)N[C@@H](CC(C)C)C(=O)N[C@@H](CC(=O)O)C(=O)N[C@@H](CCCNC(=N)N)C(=O)N[C@H](C(=O)N[C@@H](Cc1c[nH]cn1)C(=O)N[C@@H](CCC(N)=O)C(=O)N[C@@H](CCC(N)=O)C(=O)N[C@@H](CC(=O)O)C(=O)N[C@@H](Cc1ccccc1)C(=O)N[C@H](C(=O)N[C@@H](CC(N)=O)C(=O)N[C@@H](Cc1c[nH]c2ccccc12)C(=O)N[C@@H](CC(C)C)C(=O)N[C@@H](CC(C)C)C(=O)N[C@@H](C)C(=O)N[C@@H](CCC(N)=O)C(=O)N[C@@H](CCCCN)C(=O)NCC(=O)O)C(C)C)[C@@H](C)CC [Sequence 14] (H-Y[Aib]EGTFISDYSIALDRIHQQDFVNWLLAQKG-OH; N-terminus and C-terminus assumed)	> 0.1	
CC[C@H](C)[C@H](NC(=O)[C@H](CO)NC(=O)[C@H](Cc1ccc(O)cc1)NC(=O)[C@H](CC(=O)O)NC(=O)[C@H](CO)NC(=O)[C@@H](NC(=O)[C@H](Cc1ccccc1)NC(=O)[C@@H](NC(=O)CNC(=O)[C@H](CCC(=O)O)NC(=O)C(C)(C)NC(=O)[C@@H](N)Cc1ccc(O)cc1)[C@@H](C)O)[C@@H](C)CC)C(=O)N[C@@H](C)C(=O)N[C@@H](CC(C)C)C(=O)N[C@@H](CC(=O)O)C(=O)N[C@@H](CCCNC(=N)N)C(=O)N[C@H](C(=O)N[C@@H](Cc1c[nH]cn1)C(=O)N[C@@H](CCC(N)=O)C(=O)N[C@@H](CCC(=O)O)C(=O)N[C@@H](CC(=O)O)C(=O)N[C@@H](Cc1ccccc1)C(=O)N[C@H](C(=O)N[C@@H](CCCCN)C(=O)N[C@@H](Cc1c[nH]c2ccccc12)C(=O)N[C@@H](CC(C)C)C(=O)N[C@@H](CC(C)C)C(=O)N[C@@H](C)C(=O)N[C@@H](CCC(N)=O)C(=O)N[C@@H](CCCNC(=N)N)C(=O)NCC(=O)O)C(C)C)[C@@H](C)CC [Sequence 11] (H-Y[Aib]EGTFISDYSIALDRIHQEDFVKWLLAQRG-OH; N-terminus and C-terminus assumed)	> 0.1	
CC[C@H](C)[C@H](NC(=O)[C@H](CO)NC(=O)[C@H](Cc1ccc(O)cc1)NC(=O)[C@H](CC(=O)O)NC(=O)[C@H](CO)NC(=O)[C@@H](NC(=O)[C@H](Cc1ccccc1)NC(=O)[C@@H](NC(=O)CNC(=O)[C@H](CCC(=O)O)NC(=O)C(C)(C)NC(=O)[C@@H](N)Cc1ccc(O)cc1)[C@@H](C)O)[C@@H](C)CC)C(=O)N[C@@H](C)C(=O)N[C@@H](CC(C)C)C(=O)N[C@@H](CC(=O)O)C(=O)N[C@@H](CCCNC(=N)N)C(=O)N[C@H](C(=O)N[C@@H](Cc1c[nH]cn1)C(=O)N[C@@H](CCC(N)=O)C(=O)N[C@@H](CCC(=O)O)C(=O)N[C@@H](CC(=O)O)C(=O)N[C@@H](Cc1ccccc1)C(=O)N[C@H](C(=O)N[C@@H](CC(N)=O)C(=O)N[C@@H](Cc1c[nH]c2ccccc12)C(=O)N[C@@H](CC(C)C)C(=O)N[C@@H](CC(C)C)C(=O)N[C@@H](C)C(=O)N[C@@H](CCC(N)=O)C(=O)N[C@@H](CCCCN)C(=O)NCC(=O)O)C(C)C)[C@@H](C)CC [Sequence 12] (H-Y[Aib]EGTFISDYSIALDRIHQEDFVNWLLAQKG-OH; N-terminus and C-terminus assumed)	> 0.1	
CC[C@H](C)[C@H](NC(=O)[C@H](CO)NC(=O)[C@H](Cc1ccc(O)cc1)NC(=O)[C@H](CC(=O)O)NC(=O)[C@H](CO)NC(=O)[C@@H](NC(=O)[C@H](Cc1ccccc1)NC(=O)[C@@H](NC(=O)CNC(=O)[C@H](CCC(=O)O)NC(=O)C(C)(C)NC(=O)[C@@H](N)Cc1ccc(O)cc1)[C@@H](C)O)[C@@H](C)CC)C(=O)N[C@@H](C)C(=O)N[C@@H](CC(C)C)C(=O)N[C@@H](CC(=O)O)C(=O)N[C@@H](CCCCN)C(=O)N[C@H](C(=O)N[C@@H](Cc1c[nH]cn1)C(=O)N[C@@H](CCC(N)=O)C(=O)N[C@@H](CCC(=O)O)C(=O)N[C@@H](CC(=O)O)C(=O)N[C@@H](Cc1ccccc1)C(=O)N[C@H](C(=O)N[C@@H](CC(N)=O)C(=O)N[C@@H](Cc1c[nH]c2ccccc12)C(=O)N[C@@H](CC(C)C)C(=O)N[C@@H](CC(C)C)C(=O)N[C@@H](C)C(=O)N[C@@H](CCC(N)=O)C(=O)N[C@@H](CCCNC(=N)N)C(=O)NCC(=O)O)C(C)C)[C@@H](C)CC [Sequence 9] (H-Y[Aib]EGTFISDYSIALDKIHQEDFVNWLLAQRG-OH; N-terminus and C-terminus assumed)	> 0.1	
CC[C@H](C)[C@H](NC(=O)[C@H](CO)NC(=O)[C@H](Cc1ccc(O)cc1)NC(=O)[C@H](CC(=O)O)NC(=O)[C@H](CO)NC(=O)[C@@H](NC(=O)[C@H](Cc1ccccc1)NC(=O)[C@@H](NC(=O)CNC(=O)[C@H](CCC(=O)O)NC(=O)C(C)(C)NC(=O)[C@@H](N)Cc1ccc(O)cc1)[C@@H](C)O)[C@@H](C)CC)C(=O)N[C@@H](C)C(=O)N[C@@H](CC(C)C)C(=O)N[C@@H](CC(=O)O)C(=O)N[C@@H](CCC(=O)O)C(=O)N[C@@H](CC(C)C)C(=O)N[C@@H](Cc1c[nH]cn1)C(=O)N[C@@H](CCC(N)=O)C(=O)N[C@@H](CCCCN)C(=O)N[C@@H](CC(=O)O)C(=O)N[C@@H](Cc1ccccc1)C(=O)N[C@H](C(=O)N[C@@H](CC(N)=O)C(=O)N[C@@H](Cc1c[nH]c2ccccc12)C(=O)N[C@@H](CC(C)C)C(=O)N[C@@H](CC(C)C)C(=O)N[C@@H](C)C(=O)N[C@@H](CCC(N)=O)C(=O)N[C@@H](CCCNC(=N)N)C(=O)NCC(=O)O)C(C)C [Sequence 6] (H-Y[Aib]EGTFISDYSIALDELHQKDFVNWLLAQRG-OH; N-terminus and C-terminus assumed)	> 0.1	
CC[C@H](C)[C@H](NC(=O)[C@H](CO)NC(=O)[C@H](Cc1ccc(O)cc1)NC(=O)[C@H](CC(=O)O)NC(=O)[C@H](CO)NC(=O)[C@@H](NC(=O)[C@H](Cc1ccccc1)NC(=O)[C@@H](NC(=O)CNC(=O)[C@H](CCC(=O)O)NC(=O)C(C)(C)NC(=O)[C@@H](N)Cc1ccc(O)cc1)[C@@H](C)O)[C@@H](C)CC)C(=O)N[C@@H](C)C(=O)N[C@@H](CC(C)C)C(=O)N[C@@H](CC(=O)O)C(=O)N[C@@H](CCCNC(=N)N)C(=O)N[C@@H](CC(C)C)C(=O)N[C@@H](Cc1c[nH]cn1)C(=O)N[C@@H](CCC(N)=O)C(=O)N[C@@H](CCC(N)=O)C(=O)N[C@@H](CC(=O)O)C(=O)N[C@@H](Cc1ccccc1)C(=O)N[C@H](C(=O)N[C@@H](CCCCN)C(=O)N[C@@H](Cc1c[nH]c2ccccc12)C(=O)N[C@@H](CC(C)C)C(=O)N[C@@H](CC(C)C)C(=O)N[C@@H](C)C(=O)N[C@@H](CCC(N)=O)C(=O)N[C@@H](CCCNC(=N)N)C(=O)NCC(=O)O)C(C)C [Sequence 17] (H-Y[Aib]EGTFISDYSIALDRLHQQDFVKWLLAQRG-OH; N-terminus and C-terminus assumed)	> 0.1	
